Assay results taken from patent publication US12186278B2, “Mesothelin chimeric antigen receptor (CAR) and antibody against PD-L1 inhibitor for combined use in anticancer therapy” (Novartis AG, priority 2015, dated 2025).

Assays:
[1] = tested on: huCART19 cells co-cultured with Nalm-6; experiment: CART proliferation in 4 day co-culture with Nalm-6 in the presence of RAD001; format: cell-based, human
Procedure: The effect of low doses of RAD001 on CAR T cell proliferation in vitro was evaluated by co-culturing CART-expressing cells with target cells in the presence of different concentrations of RAD001.
A humanized, anti-human CD19 CAR (huCART19) lentiviral transfer vector was used to produce the genomic material packaged into VSVg pseudotyped lentiviral particles. The amino acid and nucleotide sequence of the humanized anti-human CD19 CAR (huCART19) is CAR 1, ID 104875 described in PCT publication, WO2014/153270, filed Mar. 15, 2014, and is designated SEQ ID NOs. 85 and 31 therein.
Lentiviral transfer vector DNA is mixed with the three packaging components VSVg env, gag/pol and rev in combination with lipofectamine reagent to transfect Lenti-X 293T cells. Medium is changed after 24 h and 30 h thereafter, the virus-containing media is collected, filtered and stored at −80° C. CARTs are generated by transduction of fresh or frozen naïve T cells obtained by negative magnetic selection of healthy donor blood or leukopak. T cells are activated by incubation with anti-CD3/anti-CD28 beads for 24 h, after which viral supernatant or concentrated virus (MOI=2 or 10, respectively) is added to the cultures. The modified T cells are allowed to expand for about 10 days. The percentage of cells transduced (expressing the CARs on the cell surface) and the level of CAR expression (relative fluorescence intensity, Geo Mean) are determined by flow cytometric analysis between days 7 and 9. The combination of slowing growth rate and T cell size approaching ˜350 fL determines the state for T cells to be cryopreserved for later analysis.
To evaluate the functionality of CARTs, the T cells are thawed and counted, and viability is assessed by Cellometer. The number of CAR-positive cells in each culture is normalized using non-transduced T cells (UTD). […]
For measuring the proliferation of CARTs, T cells are cultured with target cells at a ratio of 1:1. […] The number of T cells is assessed by flow cytometry using counting beads as reference.

[2] = tested on: NALM6-luc tumors; experiment: NALM6-luc tumor growth with daily RAD001 dosing; format: in vivo, NSG mice; settings: daily oral dosing of RAD001 alone, 0.3, 1, 3 and 10 mg/kg; FIG. 7
Procedure: NALM6-luc cells: The NALM6 human acute lymphoblastic leukemia (ALL) cell line was developed from the peripheral blood of a patient with relapsed ALL. The cells were then tagged with firefly luciferase. These suspension cells grow in RPMI supplemented with 10% heat inactivated fetal bovine serum.
Mice: 6 week old NSG (NOD.Cg-Prkdc^scidIl2rg^tm1Wjl/SzJ) mice were received from the Jackson Laboratory (stock number 005557).
(§1) Tumor implantation: NALM6-luc cells were grown and expanded in vitro in RPMI supplemented with 10% heat inactivated fetal bovine serum. The cells were then transferred to a 15 ml conical tube and washed twice with cold sterile PBS. NALM6-luc cells were then counted and resuspended at a concentration of 10×10^6 cells per milliliter of PBS. The cells were placed on ice and immediately (within one hour) implanted in the mice. NALM6-luc cells were injected intravenously via the tail vein in a 100 μl volume, for a total of 1×10^6 cells per mouse.
(§2) RAD001 dosing: A concentrated micro-emulsion of 50 mg equal to 1 mg RAD001 was formulated and then resuspended in D5W (dextrose 5% in water) at the time of dosing. Mice were orally dosed daily (via oral gavage) with 200 μl of the desired doses of RAD001.
PK analysis: Mice were dosed daily with RAD001 starting 7 days post tumor implantation. Dosing groups were as follows: 0.3 mg/kg, 1 mg/kg, 3 mg/kg, and 10 mg/kg. […]

[3] = Pharmacokinetic analysis of RAD001 in blood of NSG mice with NALM6 tumors; format: in vivo
Procedure: as §2
PK analysis: Mice were dosed daily with RAD001 starting 7 days post tumor implantation. Dosing groups were as follows: 0.3 mg/kg, 1 mg/kg, 3 mg/kg, and 10 mg/kg. Mice were bled on days 0 and 14 following the first and last dose of RAD001, at the following time points for PK analysis: 15 minutes, 30 minutes, 1 hour, 2 hours, 4 hours, 8 hours, 12 hours, and 24 hours.

[4] = tested on: huCAR19 CAR T cells; experiment: In vivo proliferation of humanized CD19 CAR T cells with and without RAD001 dosing; design: species or system NSG mice
Procedure: This example evaluates the ability of huCAR19 cells to proliferate in vivo with different concentrations of RAD001.
as §1
CAR T cell dosing: Mice were administered 5×10^6 CAR T cells 7 days after tumor implantation. Cells were partially thawed in a 37 degree Celsius water bath and then completely thawed by the addition of 1 ml of cold sterile PBS to the tube containing the cells. The thawed cells were transferred to a 15 ml falcon tube and adjusted to a final volume of 10 mls with PBS. The cells were washed twice at 1000 rpm for 10 minutes each time and then counted on a hemocytometer. T cells were then resuspended at a concentration of 50×10^6 CAR T cells per ml of cold PBS and kept on ice until the mice were dosed. The mice were injected intravenously via the tail vein with 100 μl of the CAR T cells for a dose of 5×10^6 CAR T cells per mouse. Eight mice per group were treated either with 100 μl of PBS alone (PBS), or humanized CD19 CAR T cells.
as §2
Based on these doses, huCAR19 CAR T cells were dosed with and without RAD001 to determine the proliferative ability of these cells. The highest dose used was 3 mg/kg based on the levels of RAD001 in the blood 24 hours after dosing. As the concentration of RAD001 was above 10 nM 24 hours after the final dose of RAD001, several lower doses of RAD001 were used in the in vivo study with CAR T cells. The CAR T cells were dosed IV one day prior to the start of the daily oral RAD001 dosing. Mice were monitored via FACS for T cell expansion.

concentration at 24 h ([3]; NSG, mouse, blood, lowest dose tested (0.3 mg/kg), oral, day 0 and day 14 PK, read-out: RAD001 concentrations in the blood 24 hours after dosing): > 0.01 µM
concentration of RAD001 24 hours after the final dose ([3]; blood, NSG mice with NALM6 tumors): above 10 nM
stability in the blood of tumor bearing mice ([3]; daily oral RAD001, FIGS. 8A and 8B): fairly stable
Structure (SMILES): CO[C@H]1C[C@@H]2CC[C@@H](C)[C@@](O)(O2)C(=O)C(=O)N2CCCC[C@H]2C(=O)O[C@H]([C@H](C)C[C@@H]2CC[C@@H](OCCO)[C@H](OC)C2)CC(=O)[C@H](C)/C=C(\C)[C@@H](O)[C@@H](OC)C(=O)[C@H](C)C[C@H](C)/C=C/C=C/C=C/1C [RAD001, (1R,9S,12S,15R,16E,18R,19R,21R,23S,24E,26E,28E,30S,32S,35R)-1,18-dihydroxy-12-{(1R)-2-[(1S,3R,4R)-4-(2-hydroxyethoxy)-3-methoxycyclohexyl]-1-methylethyl}-19,30-dimethoxy-15,17,21,23,29,35-hexamethyl-11,36-dioxa-4-aza-tricyclo[30.3.1.04,9]hexatriaconta-16,24,26,28-tetraene-2,3,10,14,20-pentaone]
proliferation of huCART19 compared with no RAD001 ([1]; 0.0032 and 0.016 nM RAD001, 4 day co-culture with Nalm-6): higher than observed without the addition of RAD001
RAD001 concentration at which huCART19 cells expanded ([1]; 4 day co-culture with Nalm-6 at 1:1, to a lesser extent at higher concentrations, FIG. 6): less than 0.016 nM
proliferation of CAR-expressing, transduced T cells ([1]; low doses of RAD001, co-culture with Nalm-6, 4 days, FIG. 6 legend): enhanced
growth of NALM6-luc tumors [2]: did not have an impact
CAR T cell proliferation relative to normal level of huCAR19 proliferation ([4]; RAD001 0.003 mg/kg daily, FIG. 9 legend): enhancement in CAR T cell proliferation
proliferation of the CAR T cells in vivo ([4]; lowest doses of RAD001, daily oral, huCAR19 CAR T cells IV one day before, FIGS. 9A and 9B): enhanced proliferation
enhanced proliferation, CD4+ CAR T cells compared with CD8+ CAR T cells ([4]; lowest doses of RAD001, FIG. 9A): more evident and prolonged
proliferation of CD8+ CAR T cells ([4]; lowest doses of RAD001, FIG. 9B): enhanced proliferation can be seen at early time points
